{
  "source": "patent US12648925B2",
  "about": "“Composition for preventing or treating cancer, containing manassantin A and immune checkpoint inhibitor or epithelial growth factor receptor inhibitor” (KYUNGPOOK NATIONAL UNIVERSITY INDUSTRY-ACADEMIC COOPERATION …, priority 2019, dated 2026)",
  "tested_on": "Lewis lung carcinoma (LLC)",
  "assay": "Hypoxic state (hypoxyprobe-1/PIMO) and CD31 microvessel density by immunohistochemistry in LLC allograft tumor",
  "assay_type": "in vivo, C57BL/6J mouse",
  "conditions": "2 mg/kg intraperitoneal on day 2, 4, 6, 8, 10; tumor extracted day 17; vs PBS control; FIG. 1",
  "procedure": "As a control, the same amount of phosphate buffered saline (PBS) was injected. In addition, to measure a hypoxic state inside the tumor on day 17, 60 mg/kg of hypoxyprobe-1™ (pimonidazole hydrochloride; PIMO, HPI) was administered by intraperitoneal injection, and after 90 minutes, the mouse was sacrificed to extract the tumor. In addition, immunohistochemistry (HC) analyses were performed using the obtained tumor tissue. More particularly, the obtained tumor was fixed with 3.7% paraformaldehyde (PFA) and then dehydrated by treatment with a 10 to 40% sucrose solution step by step. In addition, after increasing the osmotic permeability of cells by treatment with 0.3% Triton X-100 and blocking with 5% bovine serum albumin (BSA), a rat anti-CD31 (BD Biosciences) or Alexa Fluor 647-conjugated anti-HIF-1 alpha antibody (Abcam) was treated and reacted at 4° C. for 16 hours. The mouse treated with the HIF-1 alpha antibody was a mouse which was not treated with hypoxyprobe-1™. […] In addition, finally, a cell nucleus was stained with DAPI (Sigma-Aldrich) and observed using a confocal microscope, followed by quantifying a fluorescent value using ImageJ. […]",
  "data": [
    {"smiles": "COc1ccc([C@@H](O)[C@@H](C)Oc2ccc([C@H]3O[C@H](c4ccc(O[C@H](C)[C@H](O)c5ccc(OC)c(OC)c5)c(OC)c4)[C@H](C)[C@H]3C)cc2OC)cc1OC", "note": "[manassantin A]", "values": [
      {"measurement": "hypoxic state inside the tumor", "value": "significantly reduced"},
      {"measurement": "microvessel density (MVD) of CD31-positive vascular endothelial cells", "value": "significantly reduced"}
    ]}
  ]
}
